Experimental data from US20110212892A1, “AGENT FOR TREATMENT OF DIABETES” (Dainippon Sumitomo Pharma Co., Ltd., priority 2008, published 2011).

How the values were obtained:
Type in all cases: in vivo
C57BL/KsJ-db/db mice [1] = assay: Blood glucose after glibenclamide administration in db/db mice repeatedly given Compound A (Example 1-1); settings: for Blood glucose level after the glibenclamide administration (relative value when blood glucose level at 0 hr is 100%) / Area under the curve of blood glucose level after the glibenclamide administration (relative value when blood glucose level at 0 hr is 100%): vehicle or Compound A 30 mg/kg once a day 15 days, next day vehicle or glibenclamide 10 mg/kg by gavage, n = 8; for Blood glucose level after the glibenclamide administration (relative value when blood glucose level at 0 hr is 100%): feed removed; for Blood glucose level after the glibenclamide administration (relative value when blood glucose level at 0 hr is 100%) / Blood glucose level before the glibenclamide administration / Area under the curve of blood glucose level after the glibenclamide administration (relative value when blood glucose level at 0 hr is 100%): mean ± SD; for Blood glucose level before the glibenclamide administration: Compound A 30 mg/kg by gavage once a day for 15 days, next day, before glibenclamide/vehicle, n = 8, 30 mg/kg; for Decrease of blood glucose levels after glibenclamide/vehicle administration (in words): vehicle or Compound A 30 mg/kg 15 days, then vehicle or glibenclamide 10 mg/kg
Protocol: The antidiabetic action resulting from the combination of an insulin secretagogue (SU drug) and Compound A was studied by using C57BL/KsJ-db/db mice (hereinafter, referred to as “db/db mice”) (9 weeks old, male, CLEA Japan, Inc.) as a model of type 2 diabetes. The db/db mice were allocated to 4 groups (8 mice/group), and each group was put into a cage provided with feed. Among the 4 groups, a vehicle (0.5% methylcellulose solution) was administered to Groups 1 and 2 by gavage once a day for 15 days, and Compound A (30 mg/kg) was administered to Groups 3 and 4 under the same condition as Groups 1 and 2. On the next day after the last administration, the vehicle was administered to Groups 1 and 3, and glibenclamide (10 mg/kg) was administered to Groups 2 and 4, both by gavage; then the feed were removed from the cages and the changes in blood glucose levels were studied in each group. […]

db/db mice [2] = assay: HbA1c change to Day 33 in db/db mice given agents in feed (Example 1-2); settings: start of experiment to Day 33, feed with 0.02 (w/w) % Compound A and/or 0.06 (w/w) % sitagliptin; for Amounts of change in HbA1c before and after treatment: mean ± SD, n = 8
Text: (§1) The antidiabetic action resulting from the combination of an insulin secretagogue (DPP-4 inhibitor) and Compound A was studied by using db/db mice (8 weeks old, male, CLEA Japan, Inc.). The db/db mice were allocated to 4 groups (8 mice/group). The mice in Group 1 were given powdered feed (control), Group 2 were given powdered feed containing 0.02 (w/w) % of Compound A, Group 3 were given powdered feed containing 0.06 (w/w) % of sitagliptin, and Group 4 were given powdered feed containing 0.02 (w/w) % of Compound A and 0.06 (w/w) % of sitagliptin. In addition, the powdered feed mentioned-above were all the same (i.e. trade name: CE-2, CLEA Japan, Inc.). An oral glucose tolerance test was performed on Day 28. To be more specific, on the day before the test, the mice were fasted overnight; and on the test day, 2 g/kg of glucose was administered by gavage to study the changes in blood glucose levels. Glycosylated hemoglobin (hereinafter, referred to as “HbAlc”) was measured on Day 33.

db/db mice [3] = assay: HbA1c change Day 1 to Day 15 in db/db mice, Compound A and metformin (Example 1-3); settings: Compound A 30 mg/kg and/or metformin 300 mg/kg by gavage once a day for 14 days
Protocol: (§2) The antidiabetic action resulting from the combination of an insulin-sensitizing drug and a biguanide was studied by using db/db mice (8 weeks old, male, CLEA Japan, Inc.). The db/db mice were allocated to 4 groups (8 mice/group). Among the 4 groups, a vehicle (0.5% methylcellulose solution) was administered to Group 1 by gavage once a day for 14 days from the day of grouping (Day 1); Compound A (30 mg/kg) was administered to Group 2, metformin (300 mg/kg) was administered to Group 3, and Compound A (30 mg/kg) and metformin (300 mg/kg) were administered to Group 4 under the same condition as Group 1. Blood glucose and HbAlc levels were measured on Day 11 and Day 15, respectively.

db/db mice [4] = assay: Blood glucose level on Day 11 in db/db mice, Compound A and metformin (Example 1-3); settings: Compound A 30 mg/kg and/or metformin 300 mg/kg by gavage once a day for 14 days; for Blood glucose level: Day 11, mean ± SD, n = 8, in mg/dL (unit assumed)
Protocol: as §2

C57BL/KsJ-db/db mice [5] = assay: Blood insulin after glibenclamide administration in db/db mice repeatedly given Compound A (Example 1-1); settings: vehicle or Compound A 30 mg/kg once a day 15 days, next day vehicle or glibenclamide 10 mg/kg by gavage, mean ± SD, n = 8
Protocol: The antidiabetic action resulting from the combination of an insulin secretagogue (SU drug) and Compound A was studied by using C57BL/KsJ-db/db mice (hereinafter, referred to as “db/db mice”) (9 weeks old, male, CLEA Japan, Inc.) as a model of type 2 diabetes. The db/db mice were allocated to 4 groups (8 mice/group), and each group was put into a cage provided with feed. Among the 4 groups, a vehicle (0.5% methylcellulose solution) was administered to Groups 1 and 2 by gavage once a day for 15 days, and Compound A (30 mg/kg) was administered to Groups 3 and 4 under the same condition as Groups 1 and 2. On the next day after the last administration, the vehicle was administered to Groups 1 and 3, and glibenclamide (10 mg/kg) was administered to Groups 2 and 4, both by gavage; then the feed were removed from the cages and the changes in blood glucose levels were studied in each group.
As a result, blood insulin level was higher in Group 4 (i.e. repeatedly administered with Compound A and then with glibenclamide) than in Groups 1 and 2 (i.e. repeatedly administered with the vehicle).

db/db mice [6] = assay: Oral glucose tolerance test on Day 28 in db/db mice given agents in feed (Example 1-2); settings: feed with 0.02 (w/w) % Compound A and/or 0.06 (w/w) % sitagliptin; for Blood glucose level after the glucose load on Day 28 / Area under the curve of blood glucose level after the glucose load on Day 28: OGTT 2 g/kg glucose, mean ± SD, n = 8; for Blood glucose level after the glucose load on Day 28: fasted overnight; for Area under the curve of blood glucose level in oral glucose tolerance test versus control (in words): Day 28
Text: as §1

Row | SMILES | Blood glucose level after the glibenclamide administration (relative value when blood glucose level at 0 hr is 100%) (C57BL/KsJ-db/db mice [1]; 1 hr) [%] | Blood glucose level after the glibenclamide administration (relative value when blood glucose level at 0 hr is 100%) (C57BL/KsJ-db/db mice [1]; 2 hr) [%] | Blood glucose level after the glibenclamide administration (relative value when blood glucose level at 0 hr is 100%) (C57BL/KsJ-db/db mice [1]; 4 hr) [%] | Blood glucose level after the glibenclamide administration (relative value when blood glucose level at 0 hr is 100%) (C57BL/KsJ-db/db mice [1]; 6 hr) [%] | Decrease of blood glucose levels after glibenclamide/vehicle administration (in words) (C57BL/KsJ-db/db mice [1]) | Area under the curve of blood glucose level after the glibenclamide administration (relative value when blood glucose level at 0 hr is 100%) (C57BL/KsJ-db/db mice [1]) [% · hr] | Change in HbA1c versus control (in words) (db/db mice [2]) | Amounts of change in HbA1c before and after treatment (db/db mice [2]) [%] | Amount of change in HbA1c (db/db mice [3]) | Blood glucose level (Day 11) and amount of HbA1c change (Day 1 to Day 15); single agents versus vehicle, combination versus single agents (in words) (db/db mice [4]) | Blood glucose level (db/db mice [4]) | Blood insulin level after the glibenclamide administration (relative value when insulin level at 0 hr is 100%) (C57BL/KsJ-db/db mice [5]; 1 hr) [%] | Blood insulin level after the glibenclamide administration (relative value when insulin level at 0 hr is 100%) (C57BL/KsJ-db/db mice [5]; 2 hr) [%] | Area under the curve of blood insulin level after the glibenclamide administration (relative value when insulin level at 0 hr is 100%) (C57BL/KsJ-db/db mice [5]) [% · hr] | Blood glucose level after the glucose load on Day 28 (db/db mice [6]; 0 min) [mg/dL] | Blood glucose level after the glucose load on Day 28 (db/db mice [6]; 10 min) [mg/dL] | Blood glucose level after the glucose load on Day 28 (db/db mice [6]; 30 min) [mg/dL] | Blood glucose level after the glucose load on Day 28 (db/db mice [6]; 60 min) [mg/dL] | Blood glucose level after the glucose load on Day 28 (db/db mice [6]; 90 min) [mg/dL] | Blood glucose level after the glucose load on Day 28 (db/db mice [6]; 120 min) [mg/dL] | also measured
1 | Cc1ccc(C(=O)c2cccn2C/C=C/c2ccc(COC(C)(C)C(=O)O)cc2)cc1 [Compound A, 2-methyl-2-[(4-{(1E)-3-[2-(4-methylbenzoyl)-1H-pyrrol-1-yl]prop-1-en-1-yl}benzyl)oxy]propanoic acid] | 100.2 ± 10.2 | 96.1 ± 14.2 | 93.8 ± 15.9 | 93.6 ± 14.1 | did not | 575.6 ± 73.0 | A difference was not observed | 1.28 ± 0.53 | 0.93 ± 0.28 | significant decrease of blood glucose level and amount of HbAlc change | 321.9 ± 43.5 | 55.9 ± 15.8 | 61.6 ± 17.3 | 136.8 ± 17.7 | 146 ± 33 | 500 ± 62 | 633 ± 57 | 566 ± 41 | 457 ± 74 | 412 ± 82 | Blood glucose level before the glibenclamide administration (C57BL/KsJ-db/db mice [1]; group later given glibenclamide): 323.4 ± 75.7 mg/dL; Blood glucose level before the glibenclamide administration (C57BL/KsJ-db/db mice [1]; group later given vehicle): 332.1 ± 90.8 mg/dL; Area under the curve of blood glucose level in oral glucose tolerance test versus control (in words) (db/db mice [6]): significant difference was not observed; Area under the curve of blood glucose level after the glucose load on Day 28 (db/db mice [6]): 59692 ± 4741 mg·min/dL
2 | COc1ccc(Cl)cc1C(=O)NCCc1ccc(S(=O)(=O)NC(=O)NC2CCCCC2)cc1 [Glibenclamide, glibenclamide, reference compound] | 96.2 ± 7.7 | 91.3 ± 5.9 | 82.9 ± 12.7 | 80.9 ± 12.1 | no decrease in blood glucose levels | 530.0 ± 35.1 | – | – | – | – | – | 75.1 ± 25.1 | 83.3 ± 21.4 | 166.7 ± 31.5 | – | – | – | – | – | – | –
3 | CN(C)C(=N)N=C(N)N [Metformin, metformin, reference compound] | – | – | – | – | – | – | – | – | 1.09 ± 0.16 | significant decrease of blood glucose level and amount of HbAlc change | 323.5 ± 66.3 | – | – | – | – | – | – | – | – | – | –
4 | N[C@@H](CC(=O)N1CCn2c(nnc2C(F)(F)F)C1)Cc1cc(F)c(F)cc1F [Sitagliptin, sitagliptin, reference compound] | – | – | – | – | – | – | A difference was not observed | 1.68 ± 0.51 | – | – | – | – | – | – | 167 ± 15 | 542 ± 81 | 588 ± 125 | 510 ± 95 | 455 ± 100 | 408 ± 107 | Area under the curve of blood glucose level in oral glucose tolerance test versus control (in words) (db/db mice [6]): significant difference was not observed; Area under the curve of blood glucose level after the glucose load on Day 28 (db/db mice [6]): 57680 ± 10679 mg·min/dL
